{"source": "paper PMC6407913", "about": "“DREADD Agonist 21 Is an Effective Agonist for Muscarinic-Based DREADDs in Vitro and in Vivo” (ACS Pharmacology & Translational Science, 2018)", "key": {"[1]": {"parameters": "method as in PMID 28324647", "conditions": "following systemic administration of 10 mg/kg CNO; cited from earlier work"}, "hM4Di [2]": {"target": "T1, hM4Di (Homo sapiens, UniProt P08173, A203G/Y113C)", "T1 sequence (P08173 1-479 Y113C/A203G)": "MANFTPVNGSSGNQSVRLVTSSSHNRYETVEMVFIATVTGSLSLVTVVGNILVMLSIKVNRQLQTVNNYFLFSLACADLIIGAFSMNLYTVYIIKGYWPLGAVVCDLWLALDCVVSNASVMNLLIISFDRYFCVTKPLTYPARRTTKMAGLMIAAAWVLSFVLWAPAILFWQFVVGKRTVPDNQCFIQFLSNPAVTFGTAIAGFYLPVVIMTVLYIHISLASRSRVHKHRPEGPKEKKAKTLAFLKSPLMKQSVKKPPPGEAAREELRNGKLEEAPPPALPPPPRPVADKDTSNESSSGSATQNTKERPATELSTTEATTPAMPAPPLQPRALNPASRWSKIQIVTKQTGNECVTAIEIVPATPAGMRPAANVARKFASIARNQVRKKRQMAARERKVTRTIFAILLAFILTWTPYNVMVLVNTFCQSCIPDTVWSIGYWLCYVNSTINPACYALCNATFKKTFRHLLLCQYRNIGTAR", "assay": "whole-cell [3H]NMS competition binding"}, "hM1Dq [3]": {"target": "T2, hM1Dq (Homo sapiens, UniProt P11229, A196G/Y106C)", "T2 sequence (P11229 1-460 Y106C/A196G)": "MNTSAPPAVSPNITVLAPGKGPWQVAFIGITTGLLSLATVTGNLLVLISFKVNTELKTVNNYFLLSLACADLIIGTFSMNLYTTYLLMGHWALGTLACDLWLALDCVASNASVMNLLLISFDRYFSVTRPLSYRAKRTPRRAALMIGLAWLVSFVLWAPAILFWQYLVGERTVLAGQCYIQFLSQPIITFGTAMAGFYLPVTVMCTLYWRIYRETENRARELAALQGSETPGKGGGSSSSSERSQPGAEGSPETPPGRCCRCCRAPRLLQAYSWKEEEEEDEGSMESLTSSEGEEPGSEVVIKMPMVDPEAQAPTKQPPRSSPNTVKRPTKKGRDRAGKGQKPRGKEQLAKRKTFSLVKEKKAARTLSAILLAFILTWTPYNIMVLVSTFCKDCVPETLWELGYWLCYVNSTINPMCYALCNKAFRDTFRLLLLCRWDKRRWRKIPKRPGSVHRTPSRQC", "assay": "whole-cell [3H]NMS competition binding"}, "hM4Di [4]": {"target": "T1, hM4Di", "assay": "ERK1/2 phosphorylation (pERK1/2) assay"}, "hM1 [5]": {"target": "T3, hM1 (Homo sapiens, UniProt P11229)", "T3 sequence (P11229 1-460)": "T2 sequence (P11229 1-460 Y106C/A196G) with C106Y, G196A", "assay": "ERK1/2 phosphorylation (pERK1/2) assay", "type": "cell-based", "conditions": "wildtype hM1"}, "[6]": {"assay": "brain and plasma exposure after i.p. administration", "type": "in vivo, mice", "conditions": "i.p. 0.1, 1 and 10 mg/kg, 30 min after administration"}, "hM1 [7]": {"target": "T3, hM1", "assay": "IP-One accumulation assay", "type": "cell-based", "conditions": "wildtype hM1"}, "hM4 [8]": {"target": "T4, hM4 (Homo sapiens, UniProt P08173)", "T4 construct": "HA (hemagglutinin); expressed in transfected cells", "T4 sequence (P08173 1-479)": "T1 sequence (P08173 1-479 Y113C/A203G) with C113Y, G203A", "assay": "inhibition of isoproterenol-stimulated cAMP production", "type": "cell-based", "conditions": "hM4, inhibition of isoproterenol elevated cAMP, mean (±SEM)"}, "hM4 [9]": {"target": "T4, hM4", "assay": "whole-cell [3H]NMS competition binding", "conditions": "hM4, FlpIn CHO cells, mean (±SEM)"}, "hM1Dq [10]": {"target": "T2, hM1Dq", "assay": "ERK1/2 phosphorylation (pERK1/2) assay"}, "hM3Dq": {"target": "T5, hM3Dq (Homo sapiens, UniProt P20309, A239G/Y149C)", "T5 construct": "expressed in transfected cells", "T5 sequence (P20309 whole entry Y149C/A239G)": "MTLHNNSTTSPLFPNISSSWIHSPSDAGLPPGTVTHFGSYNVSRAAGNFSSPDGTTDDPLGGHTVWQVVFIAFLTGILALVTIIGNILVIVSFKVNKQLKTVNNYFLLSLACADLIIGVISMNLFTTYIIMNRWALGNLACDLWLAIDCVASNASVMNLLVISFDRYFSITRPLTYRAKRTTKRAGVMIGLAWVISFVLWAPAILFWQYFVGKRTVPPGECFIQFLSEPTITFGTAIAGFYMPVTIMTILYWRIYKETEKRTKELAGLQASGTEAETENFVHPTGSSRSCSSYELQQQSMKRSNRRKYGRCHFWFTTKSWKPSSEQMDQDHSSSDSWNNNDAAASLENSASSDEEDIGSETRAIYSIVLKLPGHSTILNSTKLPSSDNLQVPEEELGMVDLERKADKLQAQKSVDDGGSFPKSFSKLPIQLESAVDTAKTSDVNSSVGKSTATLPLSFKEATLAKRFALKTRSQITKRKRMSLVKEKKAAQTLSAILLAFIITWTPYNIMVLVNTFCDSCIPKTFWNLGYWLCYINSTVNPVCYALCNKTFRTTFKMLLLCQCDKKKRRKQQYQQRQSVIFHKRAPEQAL", "assay": "Gq-mediated calcium release (FLIPR) assay", "type": "cell-based", "conditions": "CHO cells, mean ± SEM"}, "hM1Dq [11]": {"target": "T2, hM1Dq", "assay": "IP-One accumulation assay"}, "hM4Di [12]": {"target": "T1, hM4Di", "assay": "inhibition of isoproterenol-stimulated cAMP production", "type": "cell-based", "parameters": "expressed in transfected cells", "conditions": "inhibition of isoproterenol elevated cAMP, mean (±SEM)"}, "hM1 [13]": {"target": "T3, hM1", "assay": "whole-cell [3H]NMS competition binding", "conditions": "hM1, FlpIn CHO cells, mean (±SEM)"}, "[14]": {"tested_on": "hM3Dq expressed in ARC AgRP neurons", "assay": "food intake, hM3Dq in ARC AgRP neurons (Agrp-ires-Cre mice)"}, "[15]": {"tested_on": "hM4Di expressed in PVH SIM1 neurons", "assay": "food intake, hM4Di in PVH SIM1 neurons (Sim1-Cre mice)"}, "[16]": {"conditions": "cited from earlier work"}}, "note": "Changes are numbered by the printed parent chain. Where two headings read alike, the source gives them in different places."}
{"compound": "CN1CCN(C2=Nc3cc(Cl)ccc3Nc3ccccc32)CC1", "note": "[clozapine, reference compound]", "values": [{"measurement": "level in cerebrospinal fluid (CSF)", "setting": "[1]", "value": 34, "unit": "nM"}]}
{"compound": "Clc1ccc2c(c1)N=C(N1CCNCC1)c1ccccc1N2", "note": "[NDMC, N-desmethylclozapine]", "values": [{"measurement": "level in cerebrospinal fluid (CSF)", "setting": "[1]", "value": 43, "unit": "nM"}]}
{"compound": "CN1CCN(C2=Nc3ccccc3Cc3ccccc32)CC1", "note": "[perlapine]", "values": [{"measurement": "Ki", "setting": "hM4Di [2]", "value": 67.6, "unit": "nM"}, {"measurement": "Ki", "setting": "hM1Dq [3]", "value": 26.3, "unit": "nM"}, {"measurement": "EC50", "setting": "hM4Di [4]", "value": 53.7, "unit": "nM"}, {"measurement": "agonist activity in pERK1/2 assay", "setting": "hM1 [5]", "value": "no agonist activity"}, {"measurement": "brain and plasma levels", "setting": "[6]", "value": "measurable brain and plasma levels"}, {"measurement": "metabolism to clozapine", "setting": "[6]", "value": "no evidence of metabolism to clozapine"}, {"measurement": "agonist activity in IP1 assay", "setting": "hM1 [7]", "value": "no agonist activity"}, {"measurement": "EC50", "setting": "hM4 [8]", "value": 56.2, "unit": "nM"}, {"measurement": "Ki", "setting": "hM4 [9]", "value": 263, "unit": "nM"}, {"measurement": "EC50", "setting": "hM1Dq [10]", "value": 158, "unit": "nM"}, {"measurement": "EC50", "setting": "hM3Dq; read-out: pEC50 calcium mobilization (converted)", "value": 8.32, "unit": "nM"}, {"measurement": "EC50", "setting": "hM1Dq [11]", "value": 4.17, "unit": "nM"}, {"measurement": "EC50", "setting": "hM4Di [12]", "value": 63.1, "unit": "nM"}, {"measurement": "Ki", "setting": "hM1 [13]", "value": 91.2, "unit": "nM"}]}
{"compound": "CC(=O)OCC[N+](C)(C)C", "note": "[ACh, acetylcholine]", "values": [{"measurement": "reduction in binding affinity at hM4Di vs wildtype", "setting": "hM4Di [2]; hM4Di vs hM4", "value": "> 10", "unit": "fold"}]}
{"compound": "C[N+]1([O-])CCN(C2=Nc3cc(Cl)ccc3Nc3ccccc32)CC1", "note": "[CNO, clozapine-N-oxide]", "values": [{"measurement": "higher binding affinity at hM4Di than at wildtype hM4", "setting": "hM4Di [2]; hM4Di vs hM4", "value": "> 10", "unit": "fold"}, {"measurement": "pKi", "setting": "hM4Di [2]; hM4Di, FlpIn CHO cells, [3H]-NMS, mean (±SEM)", "value": "6.30 (±0.22) N = 3"}, {"measurement": "higher binding affinity at hM1Dq than at wildtype hM1", "setting": "hM1Dq [3]; hM1Dq vs hM1", "value": "> 10", "unit": "fold"}, {"measurement": "pKi", "setting": "hM1Dq [3]; hM1Dq, FlpIn CHO cells, [3H]-NMS, mean (±SEM)", "value": "6.74 (±0.10) N = 9"}, {"measurement": "pEC50 pERK", "setting": "hM4Di [4]; hM4Di, CHO cells, mean (±SEM)", "value": "6.89 (±0.12) N = 3"}, {"measurement": "agonist activity in pERK1/2 assay", "setting": "hM1 [5]", "value": "no agonist activity"}, {"measurement": "agonist activity in IP1 assay", "setting": "hM1 [7]", "value": "no agonist activity"}, {"measurement": "food intake, light cycle, sated mice", "setting": "[14]; AgRP-ires-Cre mice with AAV-DIO-hM3Dq-mCherry, i.p.", "value": "increases feeding behavior in sated mice"}, {"measurement": "food intake in control mice", "setting": "[14]; wildtype (non-Cre-expressing) littermates injected with AAV-DIO-hM3Dq-mCherry", "value": "neither C21 nor CNO affected feeding behavior"}, {"measurement": "food intake, light cycle, sated mice", "setting": "[15]; SIM1-Cre mice with AAV-DIO-hM4Di-mCherry, i.p.", "value": "increases feeding behavior in sated mice"}, {"measurement": "food intake in control mice", "setting": "[15]; wildtype (non-Cre-expressing) littermates injected with AAV-DIO-hM4Di-mCherry", "value": "neither C21 nor CNO ligand influenced food intake"}, {"measurement": "pKi", "setting": "hM4 [9]", "value": "4.85 (±0.05) N = 3"}, {"measurement": "metabolic transformation to clozapine", "setting": "[16]; humans, nonhuman primates and guinea pigs", "value": "approximately 10%"}, {"measurement": "metabolic transformation to clozapine", "setting": "[16]; rodents", "value": "a few percent"}, {"measurement": "pEC50 pERK", "setting": "hM1Dq [10]; hM1Dq, CHO cells, mean (±SEM)", "value": "7.70 (±0.25) N = 11"}, {"measurement": "pEC50 calcium mobilization", "setting": "hM3Dq", "value": "7.26±0.07"}, {"measurement": "pEC50 IP1", "setting": "hM1Dq [11]; hM1Dq, CHO cells, mean (±SEM)", "value": "8.61 (±0.03) N = 10"}, {"measurement": "pEC50 cAMP", "setting": "hM4Di [12]", "value": "7.29 (±016) N = 4"}, {"measurement": "pKi", "setting": "hM1 [13]", "value": "5.10 (±0.03) N = 7"}]}
